This series deals with T1, hERG (Kv11.1) (Homo sapiens, UniProt Q12809).
T1 construct: gene KCNH2
The series is described as follows: automated whole-cell patch clamp (QPatch), CHO hERG DUO cells, three-point dose-response. It is filed as cell-based.

T1 sequence (Q12809 whole entry): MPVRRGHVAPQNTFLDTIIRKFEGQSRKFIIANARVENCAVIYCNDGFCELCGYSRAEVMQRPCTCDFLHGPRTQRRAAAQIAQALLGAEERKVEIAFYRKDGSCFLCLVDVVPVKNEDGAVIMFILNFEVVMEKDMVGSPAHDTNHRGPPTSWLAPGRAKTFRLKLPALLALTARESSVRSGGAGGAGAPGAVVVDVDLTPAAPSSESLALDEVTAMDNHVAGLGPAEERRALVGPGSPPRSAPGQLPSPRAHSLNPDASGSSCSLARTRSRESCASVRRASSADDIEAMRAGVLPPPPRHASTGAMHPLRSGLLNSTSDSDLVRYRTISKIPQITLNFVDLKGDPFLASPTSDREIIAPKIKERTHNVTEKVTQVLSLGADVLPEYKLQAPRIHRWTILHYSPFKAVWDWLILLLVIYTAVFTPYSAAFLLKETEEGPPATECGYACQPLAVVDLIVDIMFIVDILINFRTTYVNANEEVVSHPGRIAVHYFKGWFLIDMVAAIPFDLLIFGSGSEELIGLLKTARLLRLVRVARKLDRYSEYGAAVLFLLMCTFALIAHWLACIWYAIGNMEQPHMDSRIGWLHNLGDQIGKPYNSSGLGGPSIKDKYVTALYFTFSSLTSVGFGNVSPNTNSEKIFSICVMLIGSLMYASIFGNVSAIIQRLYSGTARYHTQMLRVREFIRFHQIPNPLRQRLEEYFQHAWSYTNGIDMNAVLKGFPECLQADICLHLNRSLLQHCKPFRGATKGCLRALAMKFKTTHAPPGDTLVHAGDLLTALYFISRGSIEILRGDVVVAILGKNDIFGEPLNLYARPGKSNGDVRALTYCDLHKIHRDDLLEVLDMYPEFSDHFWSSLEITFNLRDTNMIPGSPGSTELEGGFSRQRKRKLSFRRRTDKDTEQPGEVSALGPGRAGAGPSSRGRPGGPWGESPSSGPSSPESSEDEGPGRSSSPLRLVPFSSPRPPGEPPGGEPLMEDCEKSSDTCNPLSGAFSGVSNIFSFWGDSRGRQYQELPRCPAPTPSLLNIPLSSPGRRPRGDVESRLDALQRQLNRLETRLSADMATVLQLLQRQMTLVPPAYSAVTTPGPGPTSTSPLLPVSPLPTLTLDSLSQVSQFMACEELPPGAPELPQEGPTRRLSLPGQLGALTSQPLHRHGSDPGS

As to `COc1cc(N)c(Cl)cc1C(=O)NC1CCN(CCCOc2ccc(F)cc2)CC1OC` (stereo not shown) [Cisapride], the “automated whole-cell patch clamp (QPatch), CHO hERG DUO cells, three-point dose-” value is given as “superimposed to visualize the effect of increasing concentrations of the known hERG blocker Cisapride”.

(Values after PMC4151236, “Early identification of hERG liability in drug discovery programs by automated patch clamp” (Frontiers in Pharmacology, 2014).)
